According to patent publication US20240368655A1, “CLICK HANDLE-MODIFIED DEOXY-FLUOROARABINO NUCLEIC ACID AS A SYNTHETIC GENETIC POLYMER CAPABLE OF POST-POLYMERIZATION FUNCTIONALIZATION” (THE TRUSTEES OF BOSTON COLLEGE, priority 2023, published 2024):
Entries after “also recorded” stand apart in the source; their conditions may differ.

Target: T1, Thermococcus gorgonarius (Tgo) DNA polymerase (Thermococcus gorgonarius, UniProt P56689)
T1 construct: made in house
T1 sequence (P56689 1-773): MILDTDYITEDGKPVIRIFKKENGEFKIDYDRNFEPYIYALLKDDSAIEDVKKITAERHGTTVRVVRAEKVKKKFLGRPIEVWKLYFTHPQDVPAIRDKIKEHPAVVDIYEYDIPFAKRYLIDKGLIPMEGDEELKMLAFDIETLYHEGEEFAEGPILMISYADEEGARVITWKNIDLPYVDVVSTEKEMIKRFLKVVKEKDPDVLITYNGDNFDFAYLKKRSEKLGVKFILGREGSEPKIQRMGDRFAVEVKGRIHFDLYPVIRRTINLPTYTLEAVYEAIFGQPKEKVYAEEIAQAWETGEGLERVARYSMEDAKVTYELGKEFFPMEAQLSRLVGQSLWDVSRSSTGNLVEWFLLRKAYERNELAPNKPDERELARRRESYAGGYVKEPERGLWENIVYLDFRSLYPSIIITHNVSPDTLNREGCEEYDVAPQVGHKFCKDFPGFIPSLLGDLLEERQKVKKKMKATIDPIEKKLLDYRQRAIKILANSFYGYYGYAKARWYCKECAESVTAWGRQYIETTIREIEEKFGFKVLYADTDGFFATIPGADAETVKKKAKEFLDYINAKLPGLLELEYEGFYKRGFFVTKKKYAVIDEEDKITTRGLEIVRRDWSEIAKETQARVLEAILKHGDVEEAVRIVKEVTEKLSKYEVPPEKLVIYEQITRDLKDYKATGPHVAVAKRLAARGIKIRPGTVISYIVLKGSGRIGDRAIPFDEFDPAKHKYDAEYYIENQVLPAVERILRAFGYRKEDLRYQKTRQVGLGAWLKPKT
Experiment: DNA-templated primer extension by Tgo DNA polymerase
Format: biochemical
Conditions: with FANA ATP, CTP, GTP, DNA primer-template complex
Protocol: It was hypothesized that Thermococcus gorgonarius (Tgo) DNA polymerase could tolerate the 5-1,7-octadiyne modification on uracil and that the enzyme could incorporate FANA nucleotides. To investigate the hypothesis, a primer extension experiment was performed, in which a DNA primer-template complex was enzymatically extended by Tgo DNA polymerase using commercially available FANA nucleotide triphosphates (A, C, and G) as well as C8-alkyne-FANA UTP 11. The DNA template was prepared to contain a 40-nucleotide (nt) random region to avoid sequence bias, as well as a 24-nt poly-AAC tail at the 3′-end, which would not be transcribed, to provide a mobility difference between extension product (76 nt) and DNA template (100 nt) in denaturing polyacrylamide gel electrophoresis (PAGE). The DNA primer was labeled by a 5′-Cy5 fluorophore to allow easy detection of the extended product. A control experiment in which all FANA nucleotide triphosphates comprising natural bases (A, C, G and T) was also conducted to determine the impact of the 5-1,7-octadiyne modification of uracil on the primer extension reactivity. Tgo DNA polymerase was added in various amounts to confirm that the generation of the extended products was mediated by the Tgo DNA polymerase in a dose-dependent fashion. […]

Question: With “5-octa-1,7-diynyluracil 2′-deoxy-2′-fluoroarabino triphosphate [compound 11]” as the substance, how does the “recognition and incorporation as substrate in primer extension” value read?
Answer: The value was “produced the full-length products in a polymerase dose-dependent fashion”.

Question: What about the “recognition and incorporation as substrate in primer extension” value (listed as C8-alkyne-FANA UTP) of the same substance?
Answer: The value was “successfully served as a substrate; also recorded: quantitatively incorporated”.
